The record followed here is patent US9187486B2 (AMGEN INC., priority 2011, dated 2015).

Where a name gives a salt, the structure may show the parent alone. Read-outs that look alike come from different tables or passages of the source.

The target of one test is Pim-2 (Homo sapiens (Human), UniProt Q9P1W9). The test can be described thus: Pim enzyme assay (HTRF, phosphorylation of biotinylated-BAD (S112) peptide), Pim-2. In kind it is biochemical. The source says: (§1) Full-length human cDNAs encoding Pim-1 (MGC ID 3913552) or Pim-2 (IMAGE ID 5092935) were purchased from Invitrogen, Carlsbad, Calif. These cDNAs were used as templates in PCR reactions to produce full-length DNA clones of the PIMs. Oligonucleotide PCR primers for Pim-1 were 5′-[…]-3′ and 5′-[…]-3′. Oligonucleotide PCR primers for Pim-2 were 5′-[…]-3′ and 5′-[…]-3′. PCR products were digested with BclI and EcoRI for Pim-1 and BamHI and EcoRI for Pim-2 and ligated into a modified baculovirus transfer vector (pFastBac 1) cleaved with BamHI and EcoRI. For bacterial expression, the same cleaved PCR products encoding Pim-1 or Pim-2 were ligated into a modified E. coli expression vector pET28(a) cleaved with BamHI and EcoRI. Amino-terminal hexahistidine tags followed by a thrombin cleavage site were previously added to the vectors using standard methods of molecular biology. Recombinant baculoviruses expressing Pim-1 or Pim-2 were made using standard methods (Fastbac manual, Invitrogen, Carlsbad, Calif.). Infection of Sf9 cells was done at an m.o.i. of greater than 5 for 24-48 h. Cells were harvested by centrifugation and frozen at −80 C. For E. coli expression, cells carrying pET28-His6-Th-Pim-1 or pET28-His6-Th-Pim-2 were picked from a single colony and grown o/n in LB media. The o/n culture was used to inoculate a 2 liter flask with 500 mL media. This was grown o/n and used to inoculate 15-20 liters of Terrific Broth in a New Brunswick Scientific fermentor. The E. coli were grown at 37° C. to and OD600>1.6. The temperature was dropped to 18° C. and o/n expression was induced with 0.5 mM IPTG. Cells were harvested by centrifugation and frozen at −80° C.
(§2) The frozen cell pellets were thawed by stirring in chilled lysis buffer (0.05 M HEPES, pH 8.0, 0.25 M NaCl, 0.01 M 2-mercaptoethanol, 10% (w/v) glycerol, 0.5% (v/v) protease inhibitor cocktail (Sigma P-8340) at a ratio of 1 L/200 g cells until homogeneous. The thawed suspension was applied to a microfluidizer at 10,000 PSI to disrupt the cells and the whole lysates were clarified by centrifugation at 50,000×g for 90 min, 4° C. Imidazole was added to the clarified lysate to a final concentration of 2.5 mM and the lysate was mixed with 10 mL of Talon resin (Clontech) and the slurry rocked gently overnight at 4° C. The slurry was centrifuged at 1,000×g for 5 min, the supernatant decanted, and the resin suspended in 40 mL of lysis wash buffer (lysis buffer at 0.75 M NaCl). This step was repeated 3× and the resin was transferred to a 2.5 cm glass column. Ten column volumes of wash buffer (0.05 M HEPES, pH 8.0, 0.1 M NaCl, 0.01 M 2-mercaptoethanol, 10% (w/v) glycerol) were applied to the resin followed by 10 column volumes of elution buffer (0.05 M HEPES, pH 8.0, 0.25 M NaCl, 0.01 M 2-mercaptoethanol, 10% (w/v) glycerol, 0.1 M imidazole). Fractions were analyzed by SDS-PAGE and those containing the protein of interest were pooled and concentrated. The concentrated protein was applied to an Amersham Superdex 75 (XK 26/60) column equilibrated in 0.025 M Tris-HCl, pH 7.5, 0.1 M NaCl, 0.01 M 2-mercaptoethanol, 10% (w/v) glycerol. […] Fractions containing the monomeric protein of interest were pooled, concentrated to ˜2 mg/mL, and stored at −80° C.
(§3) The phosphorylation of biotinylated-BAD (S112) peptide by full length recombinant Pim-1, Pim-2, or Pim-3 protein was detected with streptavidin:Allophycocyanin (APC) conjugate and a europium (Eu) labeled antibody directed against phosphorylated-BAD (S112). Excitation of Eu by a high energy laser light (337 nm) leads to a transfer of energy to the APC molecule, and results in an emission at 665 nm. The fluorescence is directly proportional to the amount of phosphorylated BAD peptide present in the reaction.
In general terms: TR-FRET usually uses a lanthanide donor and a delayed reading to cut background.

Another test concerns the target Pim-1 (Homo sapiens (Human), UniProt P11309). In words: Pim enzyme assay (HTRF, phosphorylation of biotinylated-BAD (S112) peptide), Pim-1. In kind it is biochemical.
Source text: as §1, §2, §3

The mark [1] stands for this setting: full length recombinant Pim-2, biotinylated-BAD (S112) peptide, HTRF, 96-well, read-out: Pim-2 IC50 IP.
The mark [2] stands for this setting: full length recombinant Pim-1, biotinylated-BAD (S112) peptide, HTRF, 96-well, read-out: Pim-1 IC50 IP.
Setting [3] is: full length recombinant Pim-1, biotinylated-BAD (S112) peptide, HTRF, read-out: Pim_1_IC50.
[4] abbreviates: full length recombinant Pim-2, biotinylated-BAD (S112) peptide, HTRF, read-out: Pim2_IC50.

Pim-2, sequence (Q9P1W9 whole entry): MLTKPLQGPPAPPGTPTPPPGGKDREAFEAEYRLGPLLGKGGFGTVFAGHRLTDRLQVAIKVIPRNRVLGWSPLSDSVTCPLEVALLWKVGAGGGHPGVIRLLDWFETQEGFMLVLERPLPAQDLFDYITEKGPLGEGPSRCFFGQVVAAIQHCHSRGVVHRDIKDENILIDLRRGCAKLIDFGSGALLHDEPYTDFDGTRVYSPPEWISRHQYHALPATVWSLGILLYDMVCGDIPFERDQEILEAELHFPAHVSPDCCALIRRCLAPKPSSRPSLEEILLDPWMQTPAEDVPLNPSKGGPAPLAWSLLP
Pim-1, sequence (P11309 whole entry): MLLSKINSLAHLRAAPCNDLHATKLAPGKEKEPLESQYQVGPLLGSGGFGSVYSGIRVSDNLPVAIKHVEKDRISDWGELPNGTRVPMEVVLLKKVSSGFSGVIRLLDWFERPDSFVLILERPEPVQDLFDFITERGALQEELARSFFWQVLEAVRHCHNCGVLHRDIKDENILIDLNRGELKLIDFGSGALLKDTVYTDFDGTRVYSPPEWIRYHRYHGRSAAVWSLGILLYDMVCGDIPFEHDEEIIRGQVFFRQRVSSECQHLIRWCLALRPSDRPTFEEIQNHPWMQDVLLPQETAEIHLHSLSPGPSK

As to `N[C@H]1CCCN(c2ccncc2Nc2ncc3ccc(-c4ncccc4F)nn23)C1` [Example 40, N-(4-((3S)-3-amino-1-piperidinyl)-3-pyridinyl)-2-(3-fluoro-2-pyridinyl)imidazo [1,5-b]pyridazin-7-amine], the IC50 on Pim-2 (setting [1]) was found to be 1.1 nM. For the compound `N[C@H]1CCCN(c2cnccc2Nc2ncc3ccc(-c4c(F)cccc4F)nn23)C1` [Example 80, (S)-N-(3-(3-aminopiperidin-1-yl)pyridin-4-yl)-2-(2,6-difluorophenyl)imidazo[1,5-b]pyridazin-7-amine tetra(2,2,2-trifluoroacetate)], the IC50 on Pim-1 (setting [2]) and at Pim-2 (setting [1]) was greater than 1000 nM throughout. Turning to `Fc1cccc(F)c1-c1ccc2cnc(Nc3cnccc3N3CCCCC3)n2n1` [Example 70, 2-(2,6-difluorophenyl)-N-(4-(piperidin-1-yl)pyridin-3-yl)imidazo[1,5-b]pyridazin-7-amine bis(2,2,2-trifluoroacetate)], at Pim-1 (setting [2]), the IC50 is 29.6 nM. Take `N[C@H]1CCCN(c2ccncc2Nc2ncc3ccc(Cl)nn23)C1` [Example 24, N-(4-((3S)-3-amino-1-piperidinyl)-3-pyridinyl)-2-chloroimidazo[1,5-b]pyridazin-7-amine]: the IC50 worked out at 25 nM at Pim-1 (setting [3]) and 99 nM at Pim-2 (setting [4]). `O[C@H]1CCCN(c2ccncc2Nc2ncc3ccc(-c4c(F)cccc4F)nn23)C1` [Example 19, (3S)-1-(3-((2-(2,6-difluorophenyl)imidazo[1,5-b]pyridazin-7-yl)amino)-4-pyridinyl)-3-piperidinol]: the results for the IC50 at Pim-1 (setting [3]) and on Pim-2 (setting [4]) were 3 nM and 30 nM, respectively. Turning to `N[C@@H]1C=C(c2ccncc2Nc2ncc3ccc(-c4c(F)cccc4F)nn23)CCC1` (single isomer, unassigned) [Example 84, N-(4-(3-aminocyclohex-1-en-1-yl)pyridin-3-yl)-2-(2,6-difluorophenyl)imidazo[1,5-b]pyridazin-7-amine tris(2,2,2-trifluoroacetate)], on Pim-1 (setting [2]), the IC50 turned out to be 30.5 nM. Take `Cc1oncc1-c1ccncc1Nc1ncc2ccc(-c3c(F)cccc3F)nn12` [Example 102, 2-(2,6-Difluorophenyl)-N-(4-(5-methylisoxazol-4-yl)pyridin-3-yl)imidazo[1,5-b]pyridazin-7-amine bis(2,2,2-trifluoroacetate)]: the IC50 at Pim-2 (read-out: Pim-2 IC50 IP) was greater than 1000 nM. As for `N[C@H]1CCN(c2ccncc2Nc2ncc3ccc(-c4c(F)cccc4F)nn23)C1` [Example 13, N-(4-((3S)-3-amino-1-pyrrolidinyl)-3-pyridinyl)-2-(2,6-difluorophenyl)imidazo[1,5-b]pyridazin-7-amine bis(2,2,2-trifluoroacetate)], the IC50 at Pim-1 (setting [3]) is 568 nM; at Pim-2 (setting [4]), greater than 1000 nM. In the same order, the values of `Nc1cncc(-c2ccncc2Nc2ncc3ccc(-c4c(F)cccc4F)nn23)c1` [Example 29, N3′-(2-(2,6-difluorophenyl)imidazo[1,5-b]pyridazin-7-yl)-3,4′-bipyridine-3′,5-diamine] are 206 nM and greater than 1000 nM.

Regarding `CC(C)CN(C)c1ccncc1Nc1ncc2ccc(-c3c(F)cccc3F)nn12` [Example 81, N3-(2-(2,6-Difluorophenyl)imidazo[1,5-b]pyridazin-7-yl)-N4-isobutyl-N4-methylpyridine-3,4-diamine], the IC50 on Pim-1 (setting [2]) was determined as 33.8 nM. In the case of `N[C@H]1CCCN(c2ncncc2Nc2ncc3ccc(-c4ccccc4F)nn23)C1` [Example 14, (S)-N-(4-(3-aminopiperidin-1-yl)pyrimidin-5-yl)-2-(2-fluorophenyl)imidazo[1,5-b]pyridazin-7-amine], the IC50 came out at 35 nM at Pim-1 (setting [3]) and 160 nM on Pim-2 (setting [4]). In the same order, the values of `Clc1ccccc1-c1ccc2cnc(Nc3cnccc3N3CCNCC3)n2n1` [Example 5, 2-(2-chlorophenyl)-N-(4-(1-piperazinyl)-3-pyridinyl)imidazo[1,5-b]pyridazin-7-amine] are 107 nM and 640 nM. In the same order, the values of `O[C@@H]1CCCN(c2ccncc2Nc2ncc3ccc(-c4ccccc4Cl)nn23)C1` [Example 17, (3R)-1-(3-((2-(2-chlorophenyl)imidazo[1,5-b]pyridazin-7-yl)amino)-4-pyridinyl)-3-piperidinol] are 192 nM and greater than 1000 nM. On to `N[C@H]1CCCN(c2ccncc2Nc2nnc3cccnn23)C1` [Example 68, 2,2,2-trifluoroacetate], for which the figures for the IC50 on Pim-1 (setting [2]) and at Pim-2 (setting [1]) were 38.3 nM and 73.7 nM, respectively.

Regarding `N[C@H]1CCCN(c2ccncc2Nc2nnc3ccc(-c4c(F)cccc4F)nn23)C1` [Example 67, (S)-N-(4-(3-aminopiperidin-1-yl)pyridin-3-yl)-6-(2,6-difluorophenyl)-[1,2,4]triazolo[4,3-b]pyridazin-3-amine 2,2,2-trifluoroacetate], the IC50 is 4.5 nM at Pim-1 (setting [2]) and 35.4 nM on Pim-2 (setting [1]). In the same order, the values of `N[C@@H]1CCCN(c2ccncc2Nc2ncc3ccc(-c4c(F)cccc4F)nn23)C1` [Example 69, (R)-N-(4-(3-aminopiperidin-1-yl)pyridin-3-yl)-2-(2,6-difluorophenyl)imidazo[1,5-b]pyridazin-7-amine] are 7.6 nM and 35.2 nM. On to `CN(C)c1ccncc1Nc1ncc2ccc(-c3c(F)cccc3F)nn12` [Example 26, N^3-(2-(2,6-difluorophenyl)imidazo[1,5-b]pyridazin-7-yl)-N^4,N^4-dimethyl-3,4-pyridinediamine], for which the IC50 at Pim-1 (setting [3]) was 534 nM; at Pim-2 (setting [4]), greater than 1000 nM. In the same order, the values of `c1cc(N2CCNCC2)c(Nc2ncc3ccc(-c4nccs4)nn23)cn1` [Example 3, N-(4-(1-piperazinyl)-3-pyridinyl)-2-(1,3-thiazol-2-yl)imidazo[1,5-b]pyridazin-7-amine] are 54 nM and 154 nM. In the same order, the values of `Clc1ccccc1-c1ccc2cnc(Nc3cnccc3O[C@@H]3CCCNC3)n2n1` [Example 10, 2-(2-chlorophenyl)-N-(4-((3R)-3-piperidinyloxy)-3-pyridinyl)imidazo[1,5-b]pyridazin-7-amine bis(2,2,2-trifluoroacetate)] are 409 nM and greater than 1000 nM. For `N[C@H]1CCCN(c2sncc2Nc2ncc3ccc(-c4c(F)cccc4F)nn23)C1` [Example 31, N-(5-((3S)-3-amino-1-piperidinyl)-4-isothiazolyl)-2-(2,6-difluorophenyl)imidazo[1,5-b]pyridazin-7-amine dihydrochloride], the IC50 came to 50 nM at Pim-1 (read-out: Pim_1_IC50) and 136 nM on Pim-2 (setting [4]).

Take `O[C@@H]1CCN(c2ccncc2Nc2ncc3ccc(-c4c(F)cccc4F)nn23)C[C@H]1O` (single isomer, unassigned) [Example 34, 1-(3-((2-(2,6-difluorophenyl)imidazo[1,5-b]pyridazin-7-yl)amino)-4-pyridinyl)-3,4-trans-piperidinediol]: at Pim-1 (setting [2]), the IC50 came to 66.9 nM. Still for that read-out and setting: for `Fc1cccnc1-c1ccc2cnc(Nc3cnccc3N3CCCCC3)n2n1` [Example 71, 2-(3-Fluoropyridin-2-yl)-N-(4-(piperidin-1-yl)pyridin-3-yl)imidazo[1,5-b]pyridazin-7-amine bis(2,2,2-trifluoroacetate)] the value was 38.5 nM.
